Among the test systems are NCI-H226 lung; SK-MEL-5 melanoma; TK-10 renal; SK-OV-3 ovarian; PC-3 prostate; MDA-MB-231 breast; HOP-62 NSCLC; BT-549 breast; SN12C renal; SNB-19 CNS; T-47D breast; HT29 colon; U251 CNS; NCI-H522 lung; SR leukemia; K-562 leukemia; UACC-62 melanoma; MDA-N; CCRF-CEM leukemia; 786-0 renal.
Assay in all cases: NCI-60 cell line screen, 48 h

Each structure is given as a SMILES string.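 Five compound concentrations were applied to cells in 96-well plates for 48 hours; endpoints were derived by simple linear interpolation of the resulting dose-response curve. TGI: concentration producing complete growth inhibition.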 Where only a bound is given, the exact number is not on record here.

In the case of `C=CC(c1ccccc1)[C@@]1(OC(C)=O)C(=O)C(=O)OC1C1COC(C)(C)O1` (some centres not stated), the TGI with NCI-H226 lung worked out at 37.6 µM; with SK-MEL-5 melanoma, 29.7 µM; in the assay on TK-10 renal, 27.1 µM; in the assay on SK-OV-3 ovarian it was 32.3 µM; with PC-3 prostate, 24.3 µM; in the assay on MDA-MB-231 breast, 28.5 µM. Also, the TGI with HOP-62 NSCLC is 34.2 µM; in the assay on BT-549 breast, 30.1 µM; in the assay on SN12C renal, 21.7 µM; in the assay on SNB-19 CNS, 42.7 µM; with T-47D breast it was 41.1 µM; in the assay with HT29 colon, 46.2 µM. Further, the TGI was 28.7 µM in the assay with U251 CNS; 10.8 µM in the assay on NCI-H522 lung; 10.2 µM in the assay on SR leukemia; > 26 µM with K-562 leukemia; 29 µM in the assay on UACC-62 melanoma; 24.1 µM in the assay with MDA-N. Moreover, the TGI with CCRF-CEM leukemia is > 19.6 µM; in the assay on 786-0 renal it was 33.4 µM.

Take `Cc1ccc(C)n1-n1c(Cc2ccccc2)n[nH]c1=O`: the TGI in the assay with NCI-H226 lung, with SK-MEL-5 melanoma, with TK-10 renal, in the assay on SK-OV-3 ovarian, in the assay with PC-3 prostate and with MDA-MB-231 breast was > 100 µM in each case. Moreover, the TGI with HOP-62 NSCLC, in the assay on BT-549 breast, with SN12C renal, in the assay with SNB-19 CNS, with T-47D breast and in the assay with HT29 colon was > 100 µM each time. The TGI in the assay with U251 CNS, in the assay with NCI-H522 lung, in the assay on SR leukemia, in the assay with K-562 leukemia, in the assay with UACC-62 melanoma and in the assay on MDA-N was > 100 µM throughout. The TGI in the assay on CCRF-CEM leukemia and with 786-0 renal was > 100 µM throughout.

For the compound `O=C(CC(C(=O)c1cccs1)c1ccsc1)c1cccs1` (configuration not stated), the TGI in the assay on NCI-H226 lung, with SK-MEL-5 melanoma, with TK-10 renal, in the assay with SK-OV-3 ovarian, in the assay on PC-3 prostate and in the assay on MDA-MB-231 breast was > 100 µM throughout. For the same compound, the TGI in the assay with HOP-62 NSCLC, with BT-549 breast, with SN12C renal, in the assay on SNB-19 CNS, in the assay on T-47D breast and in the assay with HT29 colon was > 100 µM throughout. Besides, the TGI in the assay with U251 CNS was > 100 µM; in the assay on NCI-H522 lung it was > 100 µM; in the assay on SR leukemia, > 100 µM; in the assay on K-562 leukemia, > 100 µM; in the assay on UACC-62 melanoma it was > 100 µM; with MDA-N it was 80.5 µM. Moreover, the TGI in the assay on CCRF-CEM leukemia and in the assay on 786-0 renal was > 100 µM throughout.

With `COC(=O)c1ccccc1CC1Cc2ccc3c(c2C1)CCC3` (configuration not stated), the TGI was > 100 µM in the assay on NCI-H226 lung; 43.8 µM in the assay on SK-MEL-5 melanoma; > 100 µM in the assay on TK-10 renal; > 100 µM with SK-OV-3 ovarian; > 100 µM in the assay on PC-3 prostate; 50.5 µM in the assay with MDA-MB-231 breast. Also, the TGI in the assay on HOP-62 NSCLC was > 100 µM; in the assay with BT-549 breast, > 100 µM; with SN12C renal, > 100 µM; with SNB-19 CNS, > 100 µM; in the assay with T-47D breast it was > 100 µM; in the assay on HT29 colon it was 96.8 µM. Further, the TGI in the assay with U251 CNS is 85.1 µM; in the assay with NCI-H522 lung, 46.9 µM; in the assay with SR leukemia it was 27.1 µM; in the assay with K-562 leukemia, > 100 µM; in the assay on UACC-62 melanoma it was > 100 µM; with MDA-N, > 100 µM. The TGI with CCRF-CEM leukemia was 36.9 µM; in the assay on 786-0 renal, > 100 µM.

For the compound `O=C1c2ccccc2C(=O)[C@@]23O[C@@]12C1(Oc2cccc4cccc(c24)O1)[C@@H]1O[C@@H]1[C@@H]3O`, the TGI with NCI-H226 lung is 28.9 µM; in the assay on SK-MEL-5 melanoma, > 64.3 µM; in the assay on TK-10 renal, 15.9 µM; in the assay on SK-OV-3 ovarian it was 28.6 µM; in the assay with PC-3 prostate, 34.3 µM; with MDA-MB-231 breast, 41.1 µM. Also, the TGI in the assay with HOP-62 NSCLC was found to be 25.7 µM; in the assay on BT-549 breast it was 11.1 µM; in the assay with SN12C renal it was 26.1 µM; in the assay with SNB-19 CNS it was 28.8 µM; with T-47D breast, 29.8 µM; in the assay with HT29 colon, 15.2 µM. Moreover, the TGI in the assay with U251 CNS was > 47.6 µM; in the assay on NCI-H522 lung, 15.6 µM; in the assay with SR leukemia, > 100 µM; in the assay on K-562 leukemia, > 29.8 µM; in the assay on UACC-62 melanoma it was 27.2 µM; in the assay on MDA-N, 32 µM. Moreover, the figures for the TGI in the assay with CCRF-CEM leukemia and with 786-0 renal were > 38.7 µM and 11.6 µM, respectively.

`Cc1c(C)c2c(c(N)c1C#N)C(=O)N(Nc1ccccc1)C2=O`: the TGI in the assay on NCI-H226 lung, in the assay on SK-MEL-5 melanoma, with TK-10 renal, with PC-3 prostate, in the assay with MDA-MB-231 breast and in the assay with BT-549 breast was > 100 µM throughout. The TGI in the assay on SN12C renal, in the assay with SNB-19 CNS, in the assay on T-47D breast, with U251 CNS, in the assay on NCI-H522 lung and in the assay on SR leukemia was > 100 µM throughout. For the same compound, the TGI with K-562 leukemia, in the assay with UACC-62 melanoma, in the assay with MDA-N, in the assay with CCRF-CEM leukemia and in the assay with 786-0 renal was > 100 µM in each case.

Consider `O=c1[nH]/c(=C/c2ccc(OCc3ccccc3)cn2)c(=O)[nH]/c1=C/c1ccc([N+](=O)[O-])cc1`, for which the TGI with NCI-H226 lung, in the assay with SK-MEL-5 melanoma, in the assay on TK-10 renal, with SK-OV-3 ovarian, with PC-3 prostate and in the assay on MDA-MB-231 breast was > 100 µM in each case. Further, the TGI with HOP-62 NSCLC, with BT-549 breast, with SN12C renal, with SNB-19 CNS, with T-47D breast and with HT29 colon was > 100 µM each time. Besides, the TGI in the assay on U251 CNS, with NCI-H522 lung, with SR leukemia, with K-562 leukemia, in the assay on UACC-62 melanoma and in the assay on MDA-N was > 100 µM each time. The TGI with CCRF-CEM leukemia and in the assay with 786-0 renal was > 100 µM throughout.

The values are drawn from PubChem BioAssay (NCI).
